In paper PMC6934184, “Selective DNA-PKcs inhibition extends the therapeutic index of localized radiotherapy and chemotherapy” (The Journal of Clinical Investigation, 2019):

Biological target: T1, ERBB4 (HER4) (Homo sapiens, UniProt Q15303)
T1 construct: purchased Thermo Fisher Scientific (Life Technologies) SelectScreen
Experiment: SelectScreen Z'LYTE
Type: biochemical
Summary of the method: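 NU5455 was profiled across the SelectScreen Broad panel of kinase activity and binding assays. Z'LYTE reactions such as CSF1R ran at apparent Km ATP, while the Adapta CAMK1 assay used ATP listed as 10. Values are given as percent.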

T1 sequence (Q15303 26-1308): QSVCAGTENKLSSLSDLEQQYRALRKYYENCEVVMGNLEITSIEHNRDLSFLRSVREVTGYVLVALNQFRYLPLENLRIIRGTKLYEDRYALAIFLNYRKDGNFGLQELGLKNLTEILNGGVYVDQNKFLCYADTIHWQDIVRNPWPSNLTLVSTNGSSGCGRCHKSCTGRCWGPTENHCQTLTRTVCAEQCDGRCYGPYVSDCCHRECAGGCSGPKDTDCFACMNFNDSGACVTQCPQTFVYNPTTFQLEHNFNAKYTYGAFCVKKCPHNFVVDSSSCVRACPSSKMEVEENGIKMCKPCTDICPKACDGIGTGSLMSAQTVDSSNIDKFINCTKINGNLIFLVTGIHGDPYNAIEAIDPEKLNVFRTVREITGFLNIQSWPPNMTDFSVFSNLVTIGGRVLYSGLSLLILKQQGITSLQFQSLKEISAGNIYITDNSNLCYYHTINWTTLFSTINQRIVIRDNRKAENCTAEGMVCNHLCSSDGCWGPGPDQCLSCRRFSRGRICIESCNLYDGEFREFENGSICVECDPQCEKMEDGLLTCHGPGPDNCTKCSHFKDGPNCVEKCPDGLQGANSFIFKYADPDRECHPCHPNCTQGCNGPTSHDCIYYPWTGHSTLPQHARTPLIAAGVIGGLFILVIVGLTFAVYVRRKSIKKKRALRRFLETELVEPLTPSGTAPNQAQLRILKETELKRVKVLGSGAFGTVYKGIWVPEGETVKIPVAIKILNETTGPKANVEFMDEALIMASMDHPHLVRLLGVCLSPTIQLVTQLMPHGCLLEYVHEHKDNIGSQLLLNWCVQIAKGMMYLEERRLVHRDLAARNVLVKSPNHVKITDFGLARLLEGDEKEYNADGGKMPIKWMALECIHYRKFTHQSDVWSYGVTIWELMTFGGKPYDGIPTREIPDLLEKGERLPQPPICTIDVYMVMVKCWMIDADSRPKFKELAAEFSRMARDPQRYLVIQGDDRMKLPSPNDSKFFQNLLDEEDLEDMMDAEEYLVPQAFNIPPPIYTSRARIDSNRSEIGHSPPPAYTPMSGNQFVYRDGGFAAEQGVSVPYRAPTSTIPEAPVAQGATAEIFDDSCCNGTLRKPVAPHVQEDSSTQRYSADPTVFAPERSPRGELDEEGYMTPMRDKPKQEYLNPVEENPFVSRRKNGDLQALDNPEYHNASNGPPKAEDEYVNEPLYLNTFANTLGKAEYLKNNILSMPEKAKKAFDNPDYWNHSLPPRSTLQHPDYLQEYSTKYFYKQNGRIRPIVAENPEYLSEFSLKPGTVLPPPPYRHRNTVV

CN(C(=O)CN1CCOCC1)c1ccc2sc3c(-c4cccc5c(=O)cc(N6CC7CCC(C6)O7)oc45)cccc3c2c1 [NU5455]
inhibition at 1 µM: -2.8%
